Laboratory results taken from US12558354B2, “Tumor necrosis factor alpha (TNF-alpha) small molecule inhibitor” (AJOU UNIVERSITY INDUSTRY-ACADEMIC COOPERATION FOUNDATION, priority 2019, dated 2026).
“Also recorded” adds a separate entry of the source.

Assays:
[1] = system: human dermal fibroblasts (HDFs); assay: Cell viability (MTT) assay in human dermal fibroblasts; assay type: cell-based; conditions: HDFs, 24 hours
Method: FIG. 8A is a graph showing the effects of TIM1 and a solvent thereof, DMSO, on the viability of human dermal fibroblasts, in which cells (10^4/well) were treated with DMSO at 3 different concentrations (0.5, 1, and 2%) and TIM1 at 8 different concentrations (1, 3.125, 6.25, 12.5, 25, 50, 100, and 200 μM) for 24 hours, and the cell viability was monitored by an MTT assay. FIG. 8B is a graph showing the effect of TIM1 on the viability of a mouse fibrosarcoma cell line [L929 (1.5×10^4/well)] under the same conditions as in FIG. 8A. All experiments were independently performed 4 times, and mean±SEM of the independent experiments was calculated using a two-tailed paired Student's t-test (*P<0.05).
In order to measure cell viability, a colorimetric […] (MTT) assay (Sigma-Aldrich Co.) was performed. HDFs were seeded at a density of 10^4/well in 96-well plates (BD Biosciences, San Jose, CA, USA), grown overnight, and then treated with a test compound at various concentrations for 24 hours. The next day, the medium was replaced with a medium (100 μl/well) containing a 10% MTT solution, followed by incubated at 37° C. for 3 hours. This solution was replaced with DMSO (100 μl/well), and the plates were incubated at room temperature for 30 minutes. Thereafter, the plates were read at a wavelength of 540 nm using a microplate spectrophotometer system (Molecular Devices, Silicon Valley, California).

[2] = molecular target: T1, recombinant human TNF-α (rhTNF-α) (Homo sapiens, UniProt P01375); assay: TNF-α-mediated hIL-8 secretion in HDFs (ELISA); assay type: cell-based; conditions: for inhibition of TNF-induced hIL-8, TIM1 derivatives compared with TIM1: HDFs, 1, 10 and 50 μM, rhTNF-α 1 ng/ml
T1 construct: purchased Miltenyi Biotec
Method: (§1) HDFs were seeded at a density of 10^4/well in a 96-well plate (BD Biosciences) and grown overnight. The cells were treated for 24 hours with a 1-hour-pre-incubated mixture of rhTNF-α and test compounds. IL-8 secretion was assessed by a human IL-8 uncoated ELISA kit (eBioscience, Inc., San Diego, CA, USA), and IL-6 secretion level was assessed by a human IL-6 ELISA MAX™ Deluxe kit (BioLegend, San Diego, CA, USA). The microtiter plates were then analyzed at an appropriate wavelength using a microplate spectrophotometer system (Molecular Devices, Silicon Valley, California).

TNF-α/TNFR1 interface = TNF-α/TNFR1 interface (Homo sapiens, UniProt P01375); conditions: target TNF-α/TNFR1 interface, literature; cited from earlier work
[3] = system: collagen-induced polyarthritis (CIA); assay: Mouse model of collagen-induced polyarthritis (CIA), oral TIM1c; assay type: in vivo
Excerpt: FIG. 6B is a graph showing body weight, FIG. 6C is a graph showing a squeaking number (the value 0 indicating no sign of pain), FIG. 6D is a graph showing an increase in paw volume, FIG. 6E is a graph showing an arthritis index, that is, the severity of mouse limb arthritis. The number of arthritic limbs was quantified, and each limb was assigned a severity score of 0-4, the data representing the number of arthritic limbs per arthritic mouse and the mean severity score of arthritis in each limb, black arrows representing the start date of drug administration, NOR, n=4; CIA, n=4; TIM1c_2 mg/ml, n=4; TIM1c_20 mg/ml, n=5, values being represented as means±SEM. #p<0.05, ##p<0.01, ###p<0.001 vs. NOR group and p<0.05, **p<0.01, ***p<0.001 vs. CIA group (two-way ANOVA followed by Bonferroni correction).
Male DBA/1J mice (20-23 g) were purchased from Central Lab. Animal Inc. (Seoul, Korea). Animals were housed in a limited-access rodent facility with a maximum of 4 animals per polycarbonate cage, with free access to pelleted food and water. The temperature was maintained at 22-24° C. with a 12/12-hour light/dark cycle. Animals were acclimatized for at least 1 week prior to starting the experiment. The number of animals used per experiment or test and the potential suffering were minimized. All methods were approved by the Animal Care and Use Committee of Kyung-Hee University, Korea. All procedures were executed in accordance to the Guide for the Care and Use of Laboratory Animals by the Korea National Institute of Health.
Male DBA/1J mice (6-week-old) were subcutaneously injected with 50 μl of an emulsion containing 100 μg of chicken collagen type II (Sigma-Aldrich Co., St. Louis, MO, USA) dissolved in 25 μl of acetic acid and 25 μl of a complete Freund's adjuvant (Sigma-Aldrich Co.) at the base of the tail thereof, and the day of the first immunization was defined as day 0. On Day 14, the mice were injected with a booster of 50 μl of the emulsion having the same composition as the first immunization, except that an incomplete Freund's adjuvant was used. All mice were randomly divided into 4 experimental groups: non-treated normal group (NOR, n=4), collagen-injected and vehicle-treated arthritis control group (CIA, n=4), 2 mg/kg TIM1c-treated arthritis group (TIM1c 2 mg/ml, n=4), and 20 mg/kg TIM1c-treated arthritis group (TIM1c 20 mg/ml, n=5). The treatment groups were orally fed 2 or 20 mg/kg of TIM1c every 2 days from day 15 to day 60 after the first immunization.
In order to evaluate the progression of arthritis in CIA mice, four parameters (body weight, paw volume increase, squeaking score, and arthritis score) were measured after the first immunization with collagen and complete Freund's adjuvant. The body weights of the mice were measured using a digital balance (Mettler-Toledo Inc., Columbus, OH, USA). In order to assess nociception and hyperalgesia, ankle pain was evaluated on a scale measuring squeaking. Squeaking included any vocalization evoked by ankle flexion and extension. The flexion and extension procedures were repeated 10 times every 5 seconds, and the mouse was rated 0 (no vocalization) or 1 (vocalization) for each hindlimb thereof. The total number of vocalizations detected by the observer was counted as the number of squeaks. Paw swelling was measured by volume displacement of an electrolyte solution using a water-displacement plethysmometer (Ugo-Basil Biological Research Apparatus Co., Comerio-Varese, Italy), as previously described (Bang J. S. et al. (2009) Arthritis Res. Ther. 11(2):R49). The hindlimbs were immersed to the line of the hairy skin, and the volumes thereof were read on a digital display. The increase in paw volume was represented compared to day 0, which was defined as zero. […]

[4] = molecular target: T1, recombinant human TNF-α (rhTNF-α); assay: TNF-α-mediated hIL-6 secretion in HDFs (ELISA); assay type: cell-based
Method: as §1

[5] = molecular target: T2, recombinant mouse TNF-α (rmTNF-α) (Mus musculus, UniProt P06804); assay: Cell death attenuation assay, act-D-sensitized L929 cells with rmTNF-α; assay type: cell-based; conditions: act-D-sensitized L929, rmTNF-α 1 ng/ml, 1-100 μM
T2 construct: purchased Miltenyi Biotec
T2 sequence (P06804 80-235 limits assumed): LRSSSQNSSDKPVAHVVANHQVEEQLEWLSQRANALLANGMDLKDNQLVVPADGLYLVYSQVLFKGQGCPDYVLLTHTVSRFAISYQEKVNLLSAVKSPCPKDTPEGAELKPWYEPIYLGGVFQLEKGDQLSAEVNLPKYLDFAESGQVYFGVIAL
Method: HDFs (10^4/well) and L929 cell lines (1.5×10^4/well) were seeded in 96-well plates and grown overnight under appropriate conditions. The next day, HDFs and L929 cells were pretreated with 1 μg/ml act-D and 0.1 μg/ml act-D, respectively, followed by incubated for 30 minutes. Thereafter, a 1-hour-preincubated mixture of 10 ng/ml rhTNFα with test compounds or 1 ng/ml rmTNFα with test compounds, was applied to HDFs and L929 cells, respectively. The cells were incubated for 24 hours post-treatment, and survival was measured by the MTT assay. Cell viability was calculated with reference to the no-treatment control group. The obtained values were normalized with respect to the act-D treatment group and then used to calculate death attenuation (%) rate using the following equation: […]

[6] = HDFs, 1, 10, 50 and 100 μM, 24 hours

T1 sequence (P01375 77-233 limits assumed): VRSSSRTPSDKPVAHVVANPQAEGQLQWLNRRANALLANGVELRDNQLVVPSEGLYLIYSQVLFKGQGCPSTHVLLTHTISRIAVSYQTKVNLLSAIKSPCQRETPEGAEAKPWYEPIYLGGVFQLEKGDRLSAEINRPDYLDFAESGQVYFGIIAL
Chain of TNF-α/TNFR1 interface (P01375 77-233 limits assumed, species assumed): as the sequence (P01375 77-233 limits assumed) above

With `Cc1cc(-c2csc(N(C)C)n2)c(C)n1NC(=O)c1nn(C)c(=O)c2ccccc12` [TIM1d, N-{3-[2-(dimethylamino)-1,3-thiazol-4-yl]-2,5-dimethylpyrrol-1-yl}-3-methyl-4-oxophthalazine-1-carboxamide] the “cytotoxicity (cell viability, MTT assay)” value [1] was “negligible cytotoxicity” and the “inhibition of TNF-induced hIL-8, TIM1 derivatives compared with TIM1” value (“inhibition … compared with TIM1” below) ([2]; 24 hours) was “concentration-dependent inhibition of TNF-induced hIL-8 greater than that of TIM1”.
In the case of Erythrosine B, the IC50 (TNF-α/TNFR1 interface) is listed as 5 µM.
With `Cc1csc(N(C(=O)c2nn(C)c(=O)c3ccccc23)c2ccccc2)n1` [TIM1-10, 3-methyl-N-(4-methy1-1,3-thiazol-2-yl)-4-oxo-N-phenylphthalazine-1-carboxamide] the “cytotoxicity (cell viability, MTT assay)” value [1] was “negligible cytotoxicity” and the “inhibition … compared with TIM1” value ([2]; 24 hours) was “concentration-dependent inhibition of TNF-induced hIL-8 greater than that of TIM1”.
In the case of `CCCNc1nc(-c2cc(C)n(NC(=O)c3nn(C)c(=O)c4ccccc34)c2C)cs1.Cl` [TIM1c, N-{2,5-dimethyl-3-[2-(propylamino)-1,3-thiazol-4-yl]pyrrol-l-yl}-3-methyl-4-oxophthalazine-1-carboxamide hydrochloride], the “cytotoxicity (cell viability, MTT assay)” value [1] is reported as “negligible cytotoxicity”, the “inhibition … compared with TIM1” value ([2]; 24 hours, hydrochloride) is reported as “concentration-dependent inhibition of TNF-induced hIL-8 greater than that of TIM1; also recorded: maximally inhibited” and the “disease severity at low dose” value ([3]; 2 mg/kg/2 days) is reported as “slightly ameliorate disease severity”. For the same compound, the “induction of RA at high dose” value ([3]; 20 mg/kg/2 days) was “significantly decreased to such an extent that the limbs of the animals were almost identical to those of the normal group”, the body weight ([3]; 2 or 20 mg/kg every 2 days) was “weight gain” and the paw volume ([3]; 2 or 20 mg/kg every 2 days) was “paw volume decrease”. For the same compound, the “RA symptoms versus CIA mice” value ([3]; 2 or 20 mg/kg every 2 days, day 15 to day 60) was “Dose-dependent amelioration”, the number of squeaks ([3]; CIA mice) was “inhibited” and the “arthritis index (clinical score)” value ([3]; treatment group versus CIA) was “significantly decreased”.
With `CCCCCCn1nc(C(=O)Nc2nc3ccccc3s2)c2ccccc2c1=O` [TIM1-11, N-(1,3-benzothiazol-2-yl)-3-hexyl-4-oxophthalazine-1-carboxamide] the “cytotoxicity (cell viability, MTT assay)” value [1] was “negligible cytotoxicity” and the “inhibition … compared with TIM1” value ([2]; 24 hours) was “concentration-dependent inhibition of TNF-induced hIL-8 greater than that of TIM1”.
With `CCCn1c(C)cc(-c2csc(NC(=O)c3nn(CC)c(=O)c4ccccc34)n2)c1C` [TIM1-7, N-[4-(2,5-dimethyl-1-propylpyrrol-3-yl)-1,3-thiazol-2-yl]-3-ethyl-4-oxophthalazine-1-carboxamide] the “cytotoxicity (cell viability, MTT assay)” value [1] was “negligible cytotoxicity” and the “inhibition … compared with TIM1” value ([2]; 24 hours) was “concentration-dependent inhibition of TNF-induced hIL-8 greater than that of TIM1”.
For `C=C1C(=O)O[C@@H]2C[C@@H](C)[C@]34C[C@]5(C(=O)O[C@H]6C[C@@]7(C)C(=C[C@H]65)[C@H](C)CC[C@@H]7O)[C@H](C(C)=C3C[C@@H]12)[C@@H]4OC(C)=O` [Japonicone A], the IC50 (TNF-α/TNFR1 interface) is given as ~10 µM.
For `Cc1cc2occ(CN(C)CCN(C)Cc3cn(-c4cccc(C(F)(F)F)c4)c4ccccc34)c(=O)c2cc1C` [SPD304, reference compound], the “cytotoxicity (cell viability, MTT assay)” value [1] was “showed cytotoxicity; also recorded: severe cytotoxicity at high concentrations; also recorded: strong cytotoxicity at concentrations exceeding 1 μM; also recorded: significant cytotoxic effects were exhibited at concentrations of 10, 50 or 100 μM”, the “secretion of hIL-8 at 10 μM” value ([2]; HDFs, 10 μM) was “increase the secretion of cytokines” and the “secretion of hIL-8 at 50 μM” value ([2]; HDFs, 50 μM) was “completely inhibits”. The “inhibition of TNF-α-mediated hIL-8 secretion” value [2, 6] was “weak at 10 μM but stronger at 1 μM”, the “secretion of hIL-6 at 10 μM” value ([4]; HDFs, 10 μM) was “increase the secretion of cytokines” and the “secretion of hIL-6 at 50 μM” value ([4]; HDFs, 50 μM) was “completely inhibited”. For the same compound, the “inhibition of TNF-α-mediated hIL-6 secretion” value [4, 6] was “weak at 10 μM but stronger at 1 μM” and the “inhibition of rmTNF-α-mediated proapoptotic pathway / cell death” value [5] was “did not reduce the death of these cells at concentrations other than 1 μM”.
For `Cc1cc(-c2csc(NC(=O)c3nn(C)c(=O)c4ccccc34)n2)c(C)n1CCc1ccccc1` [TIM1-14, N-{4-[2,5-dimethyl-1-(2-phenylethyl)pyrrol-3-yl]-1,3-thiazol-2-yl}-3-methyl-4-oxophthalazine-1-carboxamide], the “cytotoxicity (cell viability, MTT assay)” value [1] was “negligible cytotoxicity” and the “inhibition … compared with TIM1” value ([2]; 24 hours) was “concentration-dependent inhibition of TNF-induced hIL-8 greater than that of TIM1”.
